The structures appear in SMILES notation. pIC50, pKd, pKi: −log10 of the molar value. Where two headings read alike, the source gives them in different places. A value given as a limit tells only on which side of the number the result lay.

Consider twelve compounds from US20110046378A1, “Novel Imaging Agents for Detecting Neurological Dysfunction” (SIEMENS MEDICAL SOLUTIONS USA, INC., priority 2008, published 2011).

One series deals with Aβ monomer. The following applies: read-out: Binding Affinity IC50; cited from earlier work.
In a further series the target is T1, Aβ 1-42 aggregates (Homo sapiens, UniProt P05067).
T1 construct: Aβ 1-42 aggregates
The following applies: read-out: Binding Affinity Ki; cited from earlier work.

The target in series [1] is Aβ42 insoluble aggregates (Homo sapiens, UniProt P05067). Put plainly: Surface plasmon resonance (Biacore) assay, Aβ42 insoluble aggregates. The following applies: SPR; read-out: binding to insoluble aggregates. On the technique in general: SPR reads the build-up and loss of mass on a sensor chip optically.
The target in series [2] is T2, Amyloid (AD patient's brain slice) (Homo sapiens, UniProt P05067).
T2 construct: The brain slices were 20 um thick
Put plainly: IC50 determination with [18F]-PiB by ex vivo competition assay using autoradiography staining. The following applies: for blocking of [18F]-PiB tissue binding, qualitative: human AD brains. In kind it is binding. The text has this: (§1) Ex Vivo Competition Assay Using Amyloid (AD patient's brain slice) Autoradiography Staining

In a further series the target is Aβ42 soluble aggregates (Homo sapiens, UniProt P05067). Nature of the series: Surface plasmon resonance (Biacore) assay, Aβ42 soluble aggregates. The following applies: SPR; read-out: binding to soluble aggregates.
In series [3] the test system is Amyloid (AD patient's brain slice). Nature of the series: Amyloid autoradiography staining of AD patient's brain slices, grey/white matter binding with wash protocols. More on the design: species or system human. The following applies: for Grey/white matter binding ratio using mild wash conditions / grey to white matter binding ratio / Grey/white matter binding ratio using harsh FDDNP wash conditions: 30 min incubation; for Grey/white matter binding ratio using mild wash conditions / Grey/white matter binding ratio using harsh FDDNP wash conditions: PBS, 20 um AD brain slices; for Grey/white matter binding ratio using mild wash conditions: 30%/40%/20% EtOH:water; for order of (non-specific) white matter binding: AD brain slices; for amyloid autoradiography staining (ex vivo), qualitative: AD patient's brain / normal brain; for grey to white matter binding ratio: human AD brain slices, EtOH:water washes; for Grey/white matter binding ratio using harsh FDDNP wash conditions: 70%/90%/70% EtOH:water. On the procedure:
as §1
A study was conducted to examine the grey to white matter binding ratios for 4 different tracers: CB-001, CB-003, FDDNP and F-PiB (FIG. 7 and FIG. 8). […] After the human brain slices from AD patients were incubated with a given tracer for 30 min, the slices were washed with various EtOH:water solutions in an attempt to optimize the grey-to white matter ratios (FIG. 9). The results were surprising and unexpected in view of previous work performed by other researchers. CB-001 has a slightly higher c Log P than FDDNP (3.8 vs 3.4) and would be expected to have poorer washout than FDDNP based on these values. […] More specifically, the white matter binding of FDDNP is several shades darker than CB-001's white matter binding, indicating low non-specific binding of CB-001.

The nature of series [4]: MicroPET imaging in WT and App mice. The following applies: for brain clearance / washout rate: WT and App mice brain, compared with [18F]PiB. In kind it is in vivo.
The test system of series [5] is Amyloid (AD brain slices). Nature of the series: [18F]-CB001 competition studies on AD brain slices. The following applies: for blocking of [18F]-CB001 staining: cold competitor, increasing concentrations. In kind it is binding, human.
Another series deals with Aβ fibrils. The following applies: read-out: Binding Affinity Ki; cited from earlier work.
A short description of series [6]: MicroPET dynamic scan of rat brain after tail vein injection. In kind it is in vivo, white Sprague-Dawley rat. The following applies: 30 min dynamic scan. As for the experimental part:
A white Sprague-Dawley rat was injected via tail vein with ˜850 uCi AD-CB-001, formulated in 10% EtOH:water. A dynamic scan was conducted for 30 min on a R4 microPET scanner. The data was reconstructed using 1 min framing.

The mark [7] stands for this setting: determination 1, vs [18F]-PiB, read-out: IC50 1.
Where [8] appears, read: determination 6, vs [18F]-PiB, read-out: IC50 6.
[9] abbreviates: mean of determinations, vs [18F]-PiB, read-out: Average IC50.
[10] abbreviates: determination 4, vs [18F]-PiB, read-out: IC50 4.

T2 sequence (P05067 672-711 limits assumed): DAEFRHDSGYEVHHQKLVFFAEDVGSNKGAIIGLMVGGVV
Chain of Aβ42 insoluble aggregates (P05067 672-713 limits assumed): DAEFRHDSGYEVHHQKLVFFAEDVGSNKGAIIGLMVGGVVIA
Chain of Aβ42 soluble aggregates (P05067 672-713 limits assumed): as above
T1 sequence (P05067 672-713 limits assumed): as above

For orientation: pIC50 means −log10 of the IC50, conventionally taken in molar units. As for `Nc1c(/N=N/c2ccc(-c3ccc(/N=N/c4cc(S(=O)(=O)O)c5ccccc5c4N)cc3)cc2)cc(S(=O)(=O)O)c2ccccc12` [Congo Red], in the series with Aβ monomer, the pIC50 is 5.00 to 5.70.

Broadly, the pKi is −log10 of the Ki, conventionally taken in molar units. As for `CNc1ccc(/C=C2\Oc3ccc([125I])cc3C2=O)cc1` [Aurones], the pKi at Aβ 1-42 aggregates was 8.91.

As for `COc1cc(/C=C/C(=O)/C=C(O)/C=C/c2ccc(O)c(OC)c2)ccc1O` [Curcumin], the pIC50 in the series with Aβ monomer is 4.70 to 5.00.

On to `FCCOCCOCCOc1ccc2c(c1)[nH]c1ccccc12` [CB-003, 2-(2-(2-(2-fluoroethoxy)ethoxy)ethoxy)-9H-carbazole], for which the pKd in [1] was 8.05; on Aβ42 soluble aggregates, 6.58. Besides, the pIC50 in series [2] (setting [7]) was 5.96; in [2] (setting [8]) it was 6.05; in series [2] (determination 13, vs [18F]-PiB, read-out: IC50 13) it was 6.04; in series [2] (setting [9]), 6.01. Moreover, the “blocking of [18F]-PiB tissue binding, qualitative” value in series [2] is “still competes with 18F-PiB for binding sites in human AD brains”; in [2] (listed as CB003), “concentration-dependent blocking of [18F]-PiB tissue binding”. In [3], the “Grey/white matter binding ratio using mild wash conditions” value is given as “Excellent”. Moreover, in series [3], the “order of (non-specific) white matter binding” value was “FDDNP>CB001>[18F]-PiB>CB003”. Besides, the “amyloid autoradiography staining (ex vivo), qualitative” value was “amyloid deposits were clearly visible in the grey matter with little white matter uptake” in [3]; “clearly distinguishes between Alzheimer's and normal brains” in [3] (listed as [18F]-CB003). For the same compound, in series [3], the “grey to white matter binding ratio” value was “excellent grey to white matter binding ratios”. For the same compound, the “brain clearance / washout rate” value in series [4] was “faster washout rate than 18F-PiB”; in [4] (listed as [18F]-CB003), “much faster than with [18F]PiB”. Further, in series [4] (microPET), the “larger brain/muscle ratio of App mice compared to WT mice” value is on record as “up to 25%”.

Turning to `[11CH3]Nc1ccc(-c2nc3ccc(O)cc3s2)cc1` [PiB, reference compound], in series [5], the “blocking of [18F]-CB001 staining” value is “blocks [18F]-CB001 staining with increasing concentrations”.

For the compound `O=CNc1ccc2c(c1)[nH]c1cc(OCCOCCOCCF)ccc12` [CB-010, N-(7-(2-(2-(2-fluoroethoxy)ethoxy)ethoxy)-9H-carbazol-2-yl)formamide], the pIC50 in [2] (setting [10]) and in series [2] (setting [9]) was 6.05 in each case.

In the case of `CC(=C(C#N)C#N)c1ccc2cc(N(C)CCF)ccc2c1` [FDDNP, reference compound], in series [3], the “Grey/white matter binding ratio using mild wash conditions” value is on record as “Poor”, the “Grey/white matter binding ratio using harsh FDDNP wash conditions” value is “Fair” and the “order of (non-specific) white matter binding” value was “FDDNP>CB001>[18F]-PiB>CB003”. Moreover, the “blocking of [18F]-CB001 staining” value in series [5] is “much less capable of blocking [18F]-CB001 staining”.

As for `O=S(=O)(O)c1cccc2cccc(Nc3ccccc3)c12` [ANS], the pIC50 in the series on Aβ monomer was < 4.00.

For `O=CNc1ccc2c(c1)[nH]c1cc(OCCF)ccc12` [CB-012, N-(7-(2-fluoroethoxy)-9H-carbazol-2-yl)formamide], the pIC50 in [2] (setting [10]) is 6.21; in series [2] (determination 5, vs [18F]-PiB, read-out: IC50 5) it was 6.52; in series [2] (setting [8]) it was 6.35; in series [2] (determination 7, vs [18F]-PiB, read-out: IC50 7), 6.41; in series [2] (setting [9]), 6.36.

Regarding `CNc1ccc(-c2nc3ccc(O)cc3s2)cc1` [PiB, reference compound], the pKi on Aβ fibrils is 8.55.

Consider `Cc1ccc2c(c1)sc(-c1ccc(N(C)C)cc1)[n+]2C` [Thioflavin T], for which, in the series on Aβ monomer, the pIC50 is < 3.30.

Take `FCCOc1ccc2c(c1)[nH]c1ccccc12` [CB-001, 2-(2-fluoroethoxy)-9H-carbazole]: in series [2] (setting [7]), the pIC50 is 6.00. For the same compound, in series [2] (determination 2, vs [18F]-PiB, read-out: IC50 2), the pIC50 was 6.32. In addition, in [2] (setting [9]), the pIC50 is 6.13. Besides, in [3], the “Grey/white matter binding ratio using mild wash conditions” value is on record as “Poor”; the “Grey/white matter binding ratio using harsh FDDNP wash conditions” value is “Excellent”; the “order of (non-specific) white matter binding” value was “FDDNP>CB001>[18F]-PiB>CB003”; the “amyloid autoradiography staining (ex vivo), qualitative” value was “good amyloid binding and little/no white matter binding”. For the same compound, in series [3], the “grey to white matter binding ratio” value is “much better grey to white matter ratio compared to FDDNP”. In series [6], the “brain entry and washout, qualitative” value is “Within minutes, the tracer entered the rat brain and quickly washed out”. Moreover, the “brain uptake, qualitative” value in [4] (App and WT mice, microPET) is “very good brain uptake”. The “plaque binding of the tracer in competition studies” value in [5] (AD brain slices) is “reversible plaque binding and competition with PiB, and little/no white matter binding”. Further, the “blocking of [18F]-CB001 staining” value in series [5] is “PiB appears to block tracer binding with the same strength as cold CB001”.
